Experimental data reported in patent publication US20100298141A1, “SUBSTITUTED PYRIDINE N-OXIDE HERBICIDES” (E. I. DU PONT DE NEMOURS AND COMPANY, priority 2007, published 2010).

How the values were obtained:
[1] = system: field bindweed; assay: Test F preemergence test; format: in vivo, Convolvulus arvensis; conditions: scale 0 to 100
Summary of the method: (§1)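 Greenhouse screen: test chemical in surfactant-containing non-phytotoxic solvent applied preemergence to sown seeds or postemergence to sugarcane plants; after 14 to 21 days each species scored visually versus controls.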

[2] = system: Surinam grass; assay: Test F preemergence test; format: in vivo, Brachiaria decumbens; conditions: scale 0 to 100; for Surinam Grass plant response rating: preemergence; for Plant response rating, Surinam Grass: Preemergence
Summary of the method: as §1

[3] = system: catchweed bedstraw; assay: Test C pre-/postemergence test; format: in vivo, Galium aparine
Summary of the method: (§2)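 Test chemicals were formulated with surfactant in a non-phytotoxic solvent and sprayed both on freshly planted seeds (preemergence) and on 1- to 4-leaf plants of 2–18 cm (postemergence). Flooded-paddy pots received compound directly into 3 cm of standing water, maintained for the test.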

[4] = system: crabgrass; assay: Test A pre-/postemergence greenhouse test; format: in vivo, Digitaria sanguinalis; conditions: for Plant response rating, Crabgrass, Large: 0 to 100 scale where 0 is no effect and 100 is complete control; for Crabgrass, Large plant response rating: 0 to 100 scale
Summary of the method: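 Visual injury ratings against untreated controls, taken roughly ten days after treatment in greenhouse. Plants were sprayed postemergence at one- to two-leaf stage (2–10 cm tall); at the same time, seeded loam/sand soil received a directed preemergence spray. Formulation: non-phytotoxic solvent mixture with surfactant.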

[5] = system: Italian ryegrass; assay: Test F preemergence test; format: in vivo, Lolium multiflorum; conditions: scale 0 to 100; for Ryegrass, Italian plant response rating: preemergence; for Plant response rating, Ryegrass, Italian: Preemergence
Summary of the method: as §1

[6] = system: goosegrass; assay: Test F preemergence test; format: in vivo, Eleusine indica; conditions: scale 0 to 100
Summary of the method: as §1

[7] = system: downy brome; assay: Test C pre-/postemergence test; format: in vivo, Bromus tectorum
Summary of the method: as §2

[8] = system: southern sandbur; assay: Test F preemergence test; format: in vivo, Cenchrus echinatus; conditions: scale 0 to 100; for Sandbur plant response rating: preemergence; for Plant response rating, Sandbur: Preemergence
Summary of the method: as §1

[9] = system: johnsongrass; assay: Test F preemergence test; format: in vivo, Sorghum halepense; conditions: scale 0 to 100
Summary of the method: as §1

[10] = system: green foxtail; assay: Test F preemergence test; format: in vivo, Setaria viridis; conditions: scale 0 to 100
Summary of the method: as §1

[11] = system: itchgrass; assay: Test F preemergence test; format: in vivo, Rottboellia cochinchinensis; conditions: scale 0 to 100
Summary of the method: as §1

[12] = system: large crabgrass; assay: Test F preemergence test; format: in vivo, Digitaria sanguinalis; conditions: scale 0 to 100
Summary of the method: as §1

[13] = system: common ragweed; assay: Test F preemergence test; format: in vivo, Ambrosia elation; conditions: scale 0 to 100; for Ragweed plant response rating: preemergence; for Plant response rating, Ragweed: Preemergence
Summary of the method: as §1

[14] = 62 g ai/ha, Preemergence, scale 0 to 100
[15] = 125 g ai/ha, preemergence, scale 0 (no effect) to 100 (complete control)
[16] = Preemergence, 31 g ai/ha, scale 0 to 100 (0 no effect, 100 complete control)
[17] = preemergence, 250 g ai/ha, scale 0 (no effect) to 100 (complete control)

Question: With `CCc1cc[n+]([O-])c(S(=O)(=O)Cc2c(C(F)(F)F)nn(C)c2OCC(F)(F)F)c1` [Compound 60] as the compound, how does the “Field Bindweed plant response rating” value ([1]; 62 g ai/ha, Preemergence) read?
Answer: 30

Question: And the “Field Bindweed plant response rating” value ([1]; 125 g ai/ha, preemergence)?
Answer: 50

Question: What about the “Field Bindweed plant response rating” value ([1]; 250 g ai/ha, preemergence) of the same compound?
Answer: 70

Question: And the “Plant response rating, Field Bindweed” value ([1]; Preemergence, 31 g ai/ha)?
Answer: 0

Question: And the “Surinam Grass plant response rating” value ([2]; 125 g ai/ha)?
Answer: 100

Question: And the “Surinam Grass plant response rating” value ([2]; 250 g ai/ha)?
Answer: 100

Question: What about the “Plant response rating, Surinam Grass” value ([2]; 62 g ai/ha) of the same compound?
Answer: 90

Question: And the “Plant response rating, Surinam Grass” value ([2]; 31 g ai/ha)?
Answer: 80

Question: And the “Galium plant response rating” value [3, 14]?
Answer: 100

Question: And the “Galium plant response rating” value [3, 15]?
Answer: 100

Question: And the “Plant response rating, Galium” value [3, 16]?
Answer: 0

Question: What about the “Galium plant response rating” value [3, 17] of the same compound?
Answer: 100

Question: And the “Plant response rating, Crabgrass, Large” value ([4]; Postemergence, 125 g ai/ha)?
Answer: 50

Question: What about the “Crabgrass, Large plant response rating” value ([4]; Postemergence, 500 g ai/ha, 0 is no effect, 100 is complete control) of the same compound?
Answer: 80

Question: And the “Crabgrass, Large plant response rating” value ([4]; Preemergence, 125 g ai/ha, 0 no effect, 100 complete control)?
Answer: 90

Question: What about the “Plant response rating, Crabgrass, Large” value ([4]; Preemergence, 500 g ai/ha) of the same compound?
Answer: 100

Question: What about the “Ryegrass, Italian plant response rating” value ([5]; 125 g ai/ha) of the same compound?
Answer: 90

Question: What about the “Ryegrass, Italian plant response rating” value ([5]; 250 g ai/ha) of the same compound?
Answer: 100

Question: What about the “Plant response rating, Ryegrass, Italian” value ([5]; 62 g ai/ha) of the same compound?
Answer: 75

Question: What about the “Plant response rating, Ryegrass, Italian” value ([5]; 31 g ai/ha) of the same compound?
Answer: 75

Question: What about the “Goosegrass plant response rating” value ([6]; 62 g ai/ha, Preemergence) of the same compound?
Answer: 80

Question: And the “Goosegrass plant response rating” value ([6]; 125 g ai/ha, preemergence)?
Answer: 100

Question: And the “Goosegrass plant response rating” value ([6]; 250 g ai/ha, preemergence)?
Answer: 100

Question: And the “Plant response rating, Goosegrass” value ([6]; Preemergence, 31 g ai/ha)?
Answer: 80

Question: What about the “Bromegrass, Downy plant response rating” value [7, 14] of the same compound?
Answer: 55

Question: And the “Bromegrass, Downy plant response rating” value [7, 15]?
Answer: 55

Question: And the “Plant response rating, Bromegrass, Downy” value [7, 16]?
Answer: 0

Question: And the “Bromegrass, Downy plant response rating” value [7, 17]?
Answer: 90

Question: What about the “Sandbur plant response rating” value ([8]; 125 g ai/ha) of the same compound?
Answer: 100

Question: What about the “Sandbur plant response rating” value ([8]; 250 g ai/ha) of the same compound?
Answer: 100

Question: What about the “Plant response rating, Sandbur” value ([8]; 62 g ai/ha) of the same compound?
Answer: 65

Question: What about the “Plant response rating, Sandbur” value ([8]; 31 g ai/ha) of the same compound?
Answer: 20

Question: And the “Johnsongrass plant response rating” value ([9]; 62 g ai/ha, Preemergence)?
Answer: 50

Question: What about the “Johnsongrass plant response rating” value ([9]; 125 g ai/ha, preemergence) of the same compound?
Answer: 95

Question: What about the “Johnsongrass plant response rating” value ([9]; 250 g ai/ha, preemergence) of the same compound?
Answer: 100

Question: And the “Plant response rating, Johnsongrass” value ([9]; Preemergence, 31 g ai/ha)?
Answer: 0

Question: What about the “Foxtail, Green plant response rating” value ([10]; 62 g ai/ha, Preemergence) of the same compound?
Answer: 75

Question: And the “Foxtail, Green plant response rating” value ([10]; 125 g ai/ha, preemergence)?
Answer: 100

Question: What about the “Foxtail, Green plant response rating” value ([10]; 250 g ai/ha, preemergence) of the same compound?
Answer: 100

Question: What about the “Plant response rating, Foxtail, Green” value ([10]; Preemergence, 31 g ai/ha) of the same compound?
Answer: 15

Question: And the “Itchgrass plant response rating” value ([11]; 62 g ai/ha, Preemergence)?
Answer: 15

Question: What about the “Itchgrass plant response rating” value ([11]; 125 g ai/ha, preemergence) of the same compound?
Answer: 25

Question: And the “Itchgrass plant response rating” value ([11]; 250 g ai/ha, preemergence)?
Answer: 70

Question: And the “Plant response rating, Itchgrass” value ([11]; Preemergence, 31 g ai/ha)?
Answer: 0

Question: And the “Crabgrass, Large plant response rating” value ([12]; 62 g ai/ha, Preemergence)?
Answer: 98

Question: And the “Crabgrass, Large plant response rating” value ([12]; 125 g ai/ha, preemergence)?
Answer: 100

Question: And the “Crabgrass, Large plant response rating” value ([12]; 250 g ai/ha, preemergence)?
Answer: 100

Question: What about the “Plant response rating, Crabgrass, Large” value ([12]; Preemergence, 31 g ai/ha) of the same compound?
Answer: 0

Question: And the “Ragweed plant response rating” value ([13]; 125 g ai/ha)?
Answer: 75

Question: And the “Ragweed plant response rating” value ([13]; 250 g ai/ha)?
Answer: 100

Question: What about the “Plant response rating, Ragweed” value ([13]; 62 g ai/ha) of the same compound?
Answer: 65

Question: What about the “Plant response rating, Ragweed” value ([13]; 31 g ai/ha) of the same compound?
Answer: 0
